One data set addresses T1, OCT2 (Homo sapiens, UniProt O15244).
T1 construct: host or cells: HEK293
T1 sequence (O15244 1-555): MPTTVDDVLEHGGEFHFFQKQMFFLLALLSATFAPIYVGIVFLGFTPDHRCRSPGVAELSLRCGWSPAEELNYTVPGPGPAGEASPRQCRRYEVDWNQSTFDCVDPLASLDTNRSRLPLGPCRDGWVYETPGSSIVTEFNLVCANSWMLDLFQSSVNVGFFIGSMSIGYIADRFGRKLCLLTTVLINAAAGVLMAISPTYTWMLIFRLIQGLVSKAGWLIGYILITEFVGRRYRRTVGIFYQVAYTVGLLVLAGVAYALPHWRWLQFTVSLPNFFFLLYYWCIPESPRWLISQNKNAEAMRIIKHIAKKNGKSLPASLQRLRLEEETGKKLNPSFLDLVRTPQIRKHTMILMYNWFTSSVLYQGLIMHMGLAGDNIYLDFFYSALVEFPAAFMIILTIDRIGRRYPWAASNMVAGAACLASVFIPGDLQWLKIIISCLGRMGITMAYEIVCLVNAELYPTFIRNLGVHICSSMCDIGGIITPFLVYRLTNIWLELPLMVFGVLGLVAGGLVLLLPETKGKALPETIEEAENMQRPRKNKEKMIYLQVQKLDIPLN
The data set is described as follows: Transporter substrate determination, uptake in HEK293-OCT2 cells. The settings on record: for Maximum Ratio (uptake in transporter‐expressing cells to empty‐vector control cells): HEK293‐OCT2, 0.1, 1, 10 µM, threshold ≥2‐fold; for substrate of the transporter: OCT2. It counts as in vitro ADME. As for the experimental part:
(§1) LC‐MS/MS analyses to assess metabolic stability and identify the transporter substrate were performed using an API 4000 QTRAP mass spectrometer (SCIEX, Framingham, MA) with electrospray ionization in positive mode. Chromatography was performed using an Atlantis dC18 analytical column (100 × 2.1 mm, 5 µm; Waters Corporation, Milford, MA). Mobile phases were 0.2% v/v formic acid in water and 0.2% v/v formic acid in acetonitrile. For metabolic stability experiments, FFA and metabolites were eluted at a flow rate of 0.6 mL/min, with a linear gradient of 20%−80% acetonitrile from 0.30−2.0 min. For transporter substrate experiments, the gradient was slightly modified to achieve suitable chromatography. The mass transitions monitored were 232.0 > 159.0 for FFA and 348.0 > 330.0 for 1ʹ‐OH‐midazolam‐d4 internal standard.
(§2) FFA and nFFA were evaluated as substrates of the transporters breast cancer resistance protein (BCRP), organic anion transporter (OAT)1, OAT3, organic cation transporter (OCT)2, MATE1, MATE2‐K, and P‐glycoprotein multidrug transporter (P‐gp; also known as MDR1 and ABCB1), according to published methods.[25], [26], [27], [28], [29] Madin‐Darby canine kidney (MDCKII)‐BCRP cells (Netherlands Cancer Institute, Amsterdam, Netherlands) or human embryonic kidney (HEK)293 cells transfected with other transporters (Sekisui Medical Co., Ltd., Tokyo, Japan) were used. Transporter‐transfected and control cells were incubated with FFA or nFFA (0.1, 1, or 10 μM), and the amount of FFA and nFFA accumulated in the cells was measured by LC‐MS/MS as described above. The accumulation of positive control substrates in the presence and absence of an inhibitor served as a positive control for transporter function. […] BCRP substrate determination was made by bi‐directional permeability across MDCKII‐BCRP and control cells cultured on 24‐well transwell plates. Incubation medium containing probe substrate was added. Ten minutes later, transepithelial electrical resistance (TEER) was recorded and cells were preincubated at 37 ± 2°C for 30−60 min before FFA or nFFA or positive control substrate with the solvent control or positive control inhibitor was added to the donor (apical) chamber. […] Samples containing FFA, nFFA, or probe substrate were mixed with internal standard and analyzed by LC‐MS/MS. […] An aliquot was added to 96‐well plate containing scintillation fluid that was analyzed by a MicroBeta^2 scintillation counter (Perkin Elmer, Waltham, MA). Protein concentration was determined by a bicinchoninic acid (BCA) protein assay according to the manufacturer’s protocol (Thermo Fisher Scientific, Waltham, MA). Non‐radiolabeled compounds were resuspended in a 50:50 v/v methanol:water solution containing internal standard and were analyzed by LC‐MS/MS. […]

In another data set the target is T2, OAT1 (Homo sapiens, UniProt Q4U2R8).
T2 construct: host or cells: HEK293
T2 sequence (Q4U2R8 1-563): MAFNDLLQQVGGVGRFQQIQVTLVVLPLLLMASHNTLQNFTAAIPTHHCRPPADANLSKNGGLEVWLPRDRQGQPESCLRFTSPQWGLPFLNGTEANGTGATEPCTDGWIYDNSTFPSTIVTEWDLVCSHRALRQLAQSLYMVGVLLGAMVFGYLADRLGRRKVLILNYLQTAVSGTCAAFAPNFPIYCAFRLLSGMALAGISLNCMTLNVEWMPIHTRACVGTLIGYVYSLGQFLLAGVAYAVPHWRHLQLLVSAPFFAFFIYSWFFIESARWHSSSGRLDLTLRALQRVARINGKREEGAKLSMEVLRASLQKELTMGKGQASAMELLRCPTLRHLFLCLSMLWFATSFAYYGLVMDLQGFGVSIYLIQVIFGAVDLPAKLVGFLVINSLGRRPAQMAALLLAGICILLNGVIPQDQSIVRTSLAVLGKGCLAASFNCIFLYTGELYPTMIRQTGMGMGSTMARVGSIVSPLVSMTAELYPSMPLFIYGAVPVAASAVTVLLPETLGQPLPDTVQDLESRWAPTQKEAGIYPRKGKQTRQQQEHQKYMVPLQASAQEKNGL
The data set can be described thus: Transporter substrate determination, uptake in HEK293-OAT1 cells. The settings on record: for Maximum Ratio (uptake in transporter‐expressing cells to empty‐vector control cells): HEK293‐OAT1, 0.1, 1, 10 µM, threshold ≥2‐fold; for substrate of the transporter: OAT1. Format: in vitro ADME. The procedure: as §1, §2

The structures appear in SMILES notation.

Take `CCNC(C)Cc1cccc(C(F)(F)F)c1` (racemic) [FFA, (RS)‐ethyl (α‐methyl‐3‐trifluoromethylphenethyl)amine]: on OCT2, the “Maximum Ratio (uptake in transporter‐expressing cells to empty‐vector control cells)” value (“Maximum Ratio” below) worked out at 1.09 and the “substrate of the transporter” value was “not substrates”. Moreover, at OAT1, the “Maximum Ratio” value is 1.22 and the “substrate of the transporter” value was “not substrates”.

`CC(N)Cc1cccc(C(F)(F)F)c1.Cl` (centres unmarked) [nFFA, 1‐(3‐(trifluoromethyl)phenyl)propan‐2‐amine hydrochloride]: at OCT2, the “Maximum Ratio” value is 1.16 and the “substrate of the transporter” value is on record as “not substrates”. On OAT1, the “Maximum Ratio” value was 1.13 and the “substrate of the transporter” value is on record as “not substrates”.

Values taken from paper PMC9124820, “In vitro evaluation of fenfluramine and norfenfluramine as victims of drug interactions” (Pharmacology Research & Perspectives, 2022).
